PubChem BioAssay AID248 (DTP/NCI, 2004)
Toxic doses and inconclusive results are not listed. No stated cut-off is given here; in the data, active means T/C of 150% or more; inactive means T/C below 125%.

System: L1210 leukemia ip in BDF1 mice, survival T/C
Assay: NCI In Vivo Anticancer Drug Screen. Data for tumor model L1210 Leukemia (intraperitoneal) in B6D2F1 (BDF1) mice
Conditions: endpoint: mean survival time, higher = longer survival
How it was run: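 Tumor was transplanted into mice, which were then dosed with test compound or vehicle alone. Survival was recorded for each group, and the treated figure was expressed relative to the control figure.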

[1] = dose: 100.0 mg/kg/injection, schedule: Q04DX003 (ip), vehicle: Klucel (hydroxypropylcellulose) (HPC)
[2] = dose: 200.0 mg/kg/injection, schedule: Q04DX003 (ip), vehicle: Klucel (hydroxypropylcellulose) (HPC)
[3] = dose: 400.0 mg/kg/injection, schedule: Q04DX003 (ip), vehicle: Klucel (hydroxypropylcellulose) (HPC)
[4] = dose: 100.0 mg/kg/injection, schedule: Q01DX009 (ip), vehicle: Klucel (hydroxypropylcellulose) (HPC)
[5] = dose: 200.0 mg/kg/injection, schedule: Q01DX009 (ip), vehicle: Klucel (hydroxypropylcellulose) (HPC)
[6] = dose: 400.0 mg/kg/injection, schedule: Q01DX009 (ip), vehicle: Klucel (hydroxypropylcellulose) (HPC)

Measured: T/C

C[CH2][Sn]([c]1ccccc1)([c]1ccccc1)[c]1ccccc1
inactive: dose: 12.5 mg/kg/injection, schedule: Q01DX009 (ip), vehicle: saline with Tween-80 97 % of control | dose: 25.0 mg/kg/injection, schedule: Q01DX009 (ip), vehicle: saline with Tween-80 99 % of control | dose: 50.0 mg/kg/injection, schedule: Q01DX009 (ip), vehicle: saline with Tween-80 99 % of control

COc1ccc(C(=O)c2ccccc2)c(OC(=O)Nc2cc([N+](=O)[O-])ccc2F)c1
inactive: [1] 95 % of control | [2] 101 % of control | [3] 98 % of control

O=C1/C(=C\c2ccccc2)OC(c2ccccc2)O/C1=C/c1ccccc1 (stereo not drawn)
inactive: dose: 100.0 mg/kg/injection, schedule: Q01DX009 (ip), vehicle: saline 91 % of control | dose: 100.0 mg/kg/injection, schedule: Q04DX003 (ip), vehicle: saline 91 % of control | dose: 200.0 mg/kg/injection, schedule: Q01DX009 (ip), vehicle: saline 98 % of control | dose: 200.0 mg/kg/injection, schedule: Q04DX003 (ip), vehicle: saline 96 % of control | dose: 400.0 mg/kg/injection, schedule: Q01DX009 (ip), vehicle: saline 88 % of control | dose: 400.0 mg/kg/injection, schedule: Q04DX003 (ip), vehicle: saline 98 % of control

CCOc1ccccc1NC(=O)c1cccc(C(=O)Nc2ccccc2OCC)c1
inactive: [4] 92 % of control | [1] 90 % of control | [5] 88 % of control | [2] 96 % of control | [6] 88 % of control | [3] 90 % of control

CC(C)/[N+]([O-])=C/C=C/c1ccccc1
inactive: [1] 96 % of control | [2] 97 % of control | [3] 100 % of control

O=C(Cl)c1ccccc1S(=O)(=O)N(CCOc1ccccc1)c1ccccc1
inactive: [4] 97 % of control | [1] 96 % of control | [5] 98 % of control | [2] 91 % of control | [6] 97 % of control | [3] 86 % of control

CCN(CC)CCOc1ccc(N)cc1
inactive: dose: 100.0 mg/kg/injection, schedule: Q01DX001 (ip), vehicle: saline 94 % of control | dose: 200.0 mg/kg/injection, schedule: Q01DX001 (ip), vehicle: saline 94 % of control | dose: 400.0 mg/kg/injection, schedule: Q01DX001 (ip), vehicle: saline 100 % of control

Oc1cccc2c(NC(=S)Nc3ccccc3)cccc12
inactive: [4] 101 % of control | dose: 100.0 mg/kg/injection, schedule: Q04DX002 (ip), vehicle: Klucel (hydroxypropylcellulose) (HPC) 96 % of control | [5] 101 % of control | dose: 200.0 mg/kg/injection, schedule: Q04DX002 (ip), vehicle: Klucel (hydroxypropylcellulose) (HPC) 104 % of control | dose: 400.0 mg/kg/injection, schedule: Q04DX002 (ip), vehicle: Klucel (hydroxypropylcellulose) (HPC) 100 % of control

CC(C)=CCCC1(C)C=Cc2c(c(C)cc3c2[nH]c2ccccc23)O1 (stereo not drawn)
inactive: dose: 25.0 mg/kg/injection, schedule: Q04DX002 (ip), vehicle: gum acacia 96 % of control | dose: 50.0 mg/kg/injection, schedule: Q04DX002 (ip), vehicle: gum acacia 89 % of control | dose: 100.0 mg/kg/injection, schedule: Q04DX002 (ip), vehicle: gum acacia 99 % of control
